We go through one substance from patent publication US20260118345A1, “METHOD OF EVALUATING INTERCELLULAR INTERACTIONS IN NEUROINFLAMMATION” (FUJIFILM Corporation, priority 2023, published 2026).

What all share (type): cell-based, human
Experiment [1] deals with NF-κB. Kind of experiment: NF-κB localization by immunostaining after LPS stimulation, two-dimensional three-cell-type co-culture of astrocytes, neurons and microglia. As to conditions: LPS 100 ng/mL, no R-7050. As to the method:
Matrigel basement membrane matrix (Corning, 356234) diluted 120-fold with DMEM/F12 (Life technologies, 11320-033) was added to a 96-well plate at 65 μL/well and allowed to stand at 4° C. After 24 hours, the culture medium was replaced with a progenitor cell culture medium and used.
Astrocyte precursor cells (XCell Science, XCS-AP-001-1V) were seeded in a 96-well plate at a density of 5×10^4 cells/well and cultured under the conditions of 37° C. and 5% CO2. The next day, the culture medium was replaced with the differentiation-inducing culture medium and further cultured for 5 days to differentiate into astrocytes.
The neurons were produced by forcing expression of the Ngn2 gene from iPS cells (WO2014/148646A; and Zhang Y, et al., Neuron, 78:785-98, 2013), and the cells that had been frozen and stored were used. The cells that had been frozen and stored were thawed in a warm bath at 37° C., and after thawing, the cells were added to the co-culture medium and centrifuged at 600×g at room temperature for 5 minutes. After centrifugation, the supernatant was removed, the cells were suspended in 1 mL of the co-culture medium, and the number of cells was counted.
As the microglia, iPS cell-derived microglia (iCell (registered trademark) Microglia, FCDI, C1110) were used. The cells that had been frozen and stored were thawed in a warm bath at 37° C., and after thawing, the cells were added to the co-culture medium and centrifuged at 600×g at room temperature for 5 minutes. After centrifugation, the supernatant was removed, the cells were suspended in 1 mL of the co-culture medium, and the number of cells was counted.
The neurons and the microglia were mixed in a ratio of 3:1 and seeded on the astrocytes at 4×10^4 cells/well. The cells were cultured under the conditions of 37° C. and 5% CO2, and half of the culture medium was replaced three times a week.
Microglia were specifically stimulated by adding LPS (FUJIFILM Wako Pure Chemical Corporation, 124-05151) at 100 ng/mL to the two-dimensional co-culture that had been cultured for 4 weeks. The cells were fixed by treating, for 30 minutes, with a formaldehyde solution (FUJIFILM Wako Pure Chemical Corporation, 061-00416) diluted 10-fold with PBS(−) (FUJIFILM Wako Pure Chemical Corporation, 166-23555) without treatment, and at 0.5 hours, 1 hour, 3 hours, 6 hours, and 24 hours after the treatment.
In addition, in the two-dimensional co-culture that had been cultured for 19 days, LPS (FUJIFILM Wako Pure Chemical Corporation, 124-05151) was added at 100 ng/ml and R-7050 (Cayman Chemical Company, 16870), which is a TNFR1 inhibitor, was added at 10 μmol/L, and the effect of TNF-α on the intercellular interaction induced by LPS stimulation was evaluated. The cells were fixed by treating, for 30 minutes, with a formaldehyde solution (FUJIFILM Wako Pure Chemical Corporation, 061-00416) diluted 10-fold with PBS (−) (FUJIFILM Wako Pure Chemical Corporation, 166-23555) without treatment, and at 0.5 hours, 1 hour, 3 hours, 6 hours, and 24 hours after the treatment.
The fixed cells were washed with PBS (−), and blocking and permeabilization were performed by treating with a solution (1% BSA/0.2% Triton X-100) in which BSA (Sigma-Aldrich, A4161) and Triton (registered trademark) X-100 (BioVision, 2104-100) were diluted to 1% and 0.2% with PBS (−) for 30 minutes. […]

The test system of experiment [2] is NF-κB. Briefly: NF-κB localization after LPS stimulation, two-cell-type co-culture of nerve and astrocytes. As to conditions: co-culture without microglia, all time points.
The test system of experiment [3] is two-cell-type co-culture of neurons and astrocytes. Briefly: Neural activity by calcium imaging (BPM), two-dimensional two-cell-type co-culture of neurons and astrocytes. The conditions noted are these: 24 hours after stimulation (TNF-α 7.5 ng/mL or LPS 100 ng/mL). As to the method: Matrigel basement membrane matrix (Corning, 356234) diluted 120-fold with DMEM/F12 (Life technologies, 11320-033) was added to a 96-well plate at 65 μL/well and allowed to stand at 4° C. After 24 hours, the culture medium was replaced with a progenitor cell culture medium and used. Astrocyte precursor cells (XCell Science, XCS-AP-001-1V) were seeded in a 96-well plate at a density of 6×10^4 cells/well, cultured under the conditions of 37° C. and 5% CO2, after culture medium was replaced with the differentiation induction culture medium, further cultured for 5 days to differentiate into astrocytes. […] After centrifugation, the supernatant was removed, the cells were suspended in 1 mL of the co-culture medium, and the number of cells was counted. […] In addition, at 24 hours after the stimulation with LPS or TNF-α, the neural activity was evaluated by calcium imaging. […] After incubating for 1 hour under conditions of 37° C. and 5% CO2, the solution was replaced with a warmed (37° C.) recording solution, and the fluorescence was measured for 10 minutes with FDSS (registered trademark)/μcell (Hamamatsu Photonics K. K., C13299). The neural activity was evaluated by quantifying the number of peaks of calcium oscillation using Wave Checker Software (Hamamatsu Photonics K. K.).

Take lipopolysaccharide [LPS]: the “nuclear translocation of NF-κB” value is recorded as “only some cells” in experiment [1] (0.5 hours and 1 hours after the LPS treatment); “many cells” in experiment [1] (3 hours and 6 hours after the LPS treatment); “not observed at any time” in experiment [2]. For the same substance, in experiment [3], the “BPM (the number of peaks of calcium oscillation per minute) as compared with the control” value is “no change”.
